Here are results for 2 molecules from publication PMC9666555, “Genuine selective caspase-2 inhibition with new irreversible small peptidomimetics” (Cell Death & Disease, 2022).

Broadly, the IC50 is the midpoint of a concentration-inhibition curve.

One assay has as its target T1, Kallikrein-1 (Homo sapiens, UniProt P06870).
T1 construct: purchased R&D Systems 2337-SE-010
Description: Non-caspase enzyme assay, Kallikrein-1. Format: biochemical. Particulars: concentrations up to 10 µM. The protocol: (§1) Stock solutions were stored at −80 °C. […]
(§2) Non-caspase enzyme assays
(§3) The human pro- kallikrein-1 (pro-hK1) was activated in a buffer containing: Tris-HCl 50 mM, CaCl2 10 mM, NaCl 150 mM, Brij-35 0,05% pH 7,5. Human pro-kallikrein-6 and -8 (pro-hK6 and 8 were activated using Lysyl-endopeptidase (Wako- BioProducts®) at a 1/500 weight ratio, in a buffer containing 50 mM Tris and 0,05% Brij-35 (pH 8). Kinetics using non-caspase enzymes for selectivity studies were done according to the following conditions.
(§4) Enzymes Substrates Buffers
(§5) Cathepsine B (0.2 nM) z-RR-AMC 20 µM Acétate de sodium 0,1 M; EDTA 1mM ; […]
(§6) Cathepsine L (1.2 nM) RLR-AMC 25 µM Acétate de sodium 0,1 M; EDTA 1mM ; […]
(§7) Cathepsine D (0.1 nM) Mca-Gly-Ly s-Pro-Ile-Leu-Phe-Phe- Citrate de Sodium 0,1 M; EDTA 2 mM ; Arg-Leu-Lys(Dnp)-D-Arg-NH2 10 µM Brij-35 0,01%; pH 4 hK1 (4 nM) Boc-VPR-AMC 100µM Tris 50mM; Citrate 1M; Brij-35 0.05%; pH7 hK6 (2 nM ) Boc-QAR -AMC 100 µM Tris 50mM; Citrate 1M; Brij-35 0.05%; pH7 hK8 (1 nM) Boc-VPR-AMC 100µM Tris 50mM; Citrate 1M; Brij-35 0.05%; pH7
(§8) Thrombine (10 mU/mL) Boc-VPR-AMC 100µM Tris 50mM; Citrate 1M; Brij-35 0.05%; pH7 Plasmine (4 nM ) Boc-QAR -AMC 100µM Tris 50mM; Citrate 1M; Brij-35 0.05%; pH7 Trypsine (0.1 nM) Boc-QAR -AMC 100µM Tris 50mM; Citrate 1M; Brij-35 0.05%; pH7

For a further assay, the target named is Cathepsin-B (Homo sapiens, UniProt P07858). Description: Non-caspase enzyme assay, Cathepsin-B. It counts as biochemical. The conditions noted are these: concentrations up to 10 µM. The method, then:
as §1, §2, §3, §4, §5, §6, §7, §8

In a further assay the target is T2, Kallikrein-8 (Homo sapiens, UniProt O60259).
T2 construct: purchased R&D Systems 2025-SE-010
T2 sequence (O60259 33-260): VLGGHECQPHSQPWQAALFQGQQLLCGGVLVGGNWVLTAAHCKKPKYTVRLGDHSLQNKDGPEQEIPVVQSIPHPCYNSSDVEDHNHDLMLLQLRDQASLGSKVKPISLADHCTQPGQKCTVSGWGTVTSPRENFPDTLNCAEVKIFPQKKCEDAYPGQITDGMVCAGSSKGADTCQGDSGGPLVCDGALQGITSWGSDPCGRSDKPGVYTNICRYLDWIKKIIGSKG
Kind of assay: Non-caspase enzyme assay, Kallikrein-8. Format: biochemical. Particulars: concentrations up to 10 µM. The protocol: as §1, §2, §3, §4, §5, §6, §7, §8

A further assay deals with Cathepsin-L (Homo sapiens, UniProt P07711). Kind of assay: Non-caspase enzyme assay, Cathepsin-L. Particulars: concentrations up to 10 µM. Format: biochemical. The method, then: as §1, §2, §3, §4, §5, §6, §7, §8
Sequence of Cathepsin-L (P07711 114-333): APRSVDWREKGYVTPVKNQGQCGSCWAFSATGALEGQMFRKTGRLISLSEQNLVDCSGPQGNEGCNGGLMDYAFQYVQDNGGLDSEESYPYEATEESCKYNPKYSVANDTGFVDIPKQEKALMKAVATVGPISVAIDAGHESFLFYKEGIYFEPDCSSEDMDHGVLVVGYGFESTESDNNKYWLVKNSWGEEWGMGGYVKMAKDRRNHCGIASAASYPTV
For assay [1], the target named is human recombinant Caspase-6 (Homo sapiens, UniProt P55212). Description: Additional enzyme kinetics, Caspase-6. Particulars: concentrations up to 10 µM.
Sequence of human recombinant Caspase-6 (P55212 24-179 limits assumed): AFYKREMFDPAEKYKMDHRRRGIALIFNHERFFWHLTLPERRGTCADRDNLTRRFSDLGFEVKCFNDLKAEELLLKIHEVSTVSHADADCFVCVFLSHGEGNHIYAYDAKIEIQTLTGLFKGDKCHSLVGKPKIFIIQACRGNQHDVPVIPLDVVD
Sequence of human recombinant Caspase-6 (P55212 194-293 limits assumed): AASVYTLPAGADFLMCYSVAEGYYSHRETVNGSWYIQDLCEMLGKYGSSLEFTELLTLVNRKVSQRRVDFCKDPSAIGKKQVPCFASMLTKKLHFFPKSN
Description: (§9) The human active recombinant Caspase-3 (#707-C3) was purchased from R&D Systems (Minneapolis, USA). […] Stock solutions were stored at −80 °C. […] Caspase inhibitors were solubilized in DMSO at 10 mM and stored at −80 °C.
(§10) Initial velocity (V0) was determined from the linear portion of the progress curve. The composition of the activity buffer was: 20 mM HEPES, pH 7.4; 0.1% CHAPS, 5 mM DTT, 2 mM EDTA; 800 mM sodium succinate for Caspase-2 (0.2 nM) with 25 µM of Ac-VDVAD-7-amino-3-methylcoumarin (AMC) and 20 mM HEPES, pH 7.4; 0.1% CHAPS, 5 mM DTT, 2 mM EDTA; supplemented with 1 mg/mL of stabilizing agent bovine serum albumin (BSA) for Caspase-3 (0.1 nM) with 10 μM of Ac-DEVD-AMC. Compounds (0.001–100 µM) were tested in duplicate for each inhibitor concentration to detect their inhibitory potential. Enzymes and compounds were incubated for 30 min before initiating enzymatic reaction by adding substrate. Initial rates determined in control experiments (V0) were considered as 100% of the caspase activity; initial rates that were below 100% in the presence of tested compound (Vi) were considered as inhibition. The inhibitory activity of compounds was expressed as IC50 (Inhibitor concentration giving 50% inhibition). The values of IC50 were calculated by fitting the experimental data using Mars data Analysis 2.0 and KaleidaGraph software.1 %Inhibition=1001−Vi/V0=100I0/IC50+I0
Assay [2] has as its system Casp2-S1P-SREBP2 activation pathway in HEK 293 cells. Description: Casp2-dependent S1P cleavage and SREBP2 activation in transfected HEK 293 cells (WB). The conditions noted are these: 10 µM, 16 h.
Description: To test SREBP processing, HEK 293 (ATCC® CRL-1573) cells were plated at a density of 0.5 × 10^5 per well (6-well plates). The next day, 1 μg of each cDNAs were transfected using lipofectamine 3000 (Thermo Fisher Scientific, MA) according to the manufacturer’s instruction. cDNAs used were empty vector (EV), Casp2-HA, PIDD-Flag, RAIDD-His, Myc-S1P, and V5-SREBP2. After 4 h, cells were incubated in DMEM/F12 medium supplemented with indicated Casp2 inhibitors (10 μM) for 16 h. Whole-cell lysates were prepared in lysate buffer (150 mM Tris-HCl, pH 7.4, 10% sodium-deoxycholate, 100 mM NaCl, 100 mM EDTA, 100 mM PMSF, 200 mM NaF, 100 mM Na3VO4, and a mixture of protease inhibitors). […] Equal quantities of proteins were subjected to immunoblot (WB) analysis with anti-Flag (#F7425 Sigma-Aldrich), anti-HA (#1867431, Roche), anti-Casp2 (#ALX-804-356, 11B4, Enzo Life Sciences), anti-V5 monoclonal antibody (#13202, Cell Signaling Technology), anti-Casp3 (#9661, #9662, #9664, Cell Signaling Technologies), and anti-HSP90 (#sc-101494, Santa Cruz Technologies).
HEK 293 cells were transfected with indicated plasmids in order to overexpress SREBP2, S1P, RAIDD, PIDD1, and Casp-2. […] HEK 293 cells were transfected with the indicated plasmids. […] Then, whole cell extracts (WCL) were prepared and subjected to WB analysis to detect Casp2 (through HA tag), RAIDD (through 6HIS tag), and PIDD1, PIDD1-C, PIDD1-CC (through Flag tag).
In the next assay the target is T3, Plasmin (Homo sapiens, UniProt P00747).
T3 construct: The human active Plasmin, Thrombin, and Trypsin; purchased Sigma-Aldrich
T3 sequence (P00747 581-810 limits assumed): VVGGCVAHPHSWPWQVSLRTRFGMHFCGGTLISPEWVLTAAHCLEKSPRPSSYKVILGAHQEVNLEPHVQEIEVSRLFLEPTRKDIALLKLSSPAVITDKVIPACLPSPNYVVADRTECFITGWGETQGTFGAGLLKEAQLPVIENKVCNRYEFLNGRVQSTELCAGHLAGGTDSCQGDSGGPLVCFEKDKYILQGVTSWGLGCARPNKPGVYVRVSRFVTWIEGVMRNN
T3 sequence (P00747 97-580 partner limits assumed): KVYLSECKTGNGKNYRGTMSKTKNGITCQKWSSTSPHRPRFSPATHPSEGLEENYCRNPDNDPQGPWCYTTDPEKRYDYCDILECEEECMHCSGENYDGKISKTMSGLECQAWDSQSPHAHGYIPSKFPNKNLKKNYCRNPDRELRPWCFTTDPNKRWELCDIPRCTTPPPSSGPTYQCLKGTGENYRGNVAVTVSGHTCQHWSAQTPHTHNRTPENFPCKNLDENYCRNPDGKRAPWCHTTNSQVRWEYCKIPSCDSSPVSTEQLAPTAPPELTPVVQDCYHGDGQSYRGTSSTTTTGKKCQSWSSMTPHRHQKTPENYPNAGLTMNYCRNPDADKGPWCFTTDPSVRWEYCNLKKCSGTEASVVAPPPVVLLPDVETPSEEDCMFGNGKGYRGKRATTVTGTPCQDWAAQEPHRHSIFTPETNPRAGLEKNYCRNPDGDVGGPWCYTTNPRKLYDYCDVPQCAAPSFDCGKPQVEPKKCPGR
Kind of assay: Non-caspase enzyme assay, Plasmin. Format: biochemical. The conditions noted are these: concentrations up to 10 µM. The method, then:
as §1, §2, §3, §4, §5, §6, §7, §8

Assay [3] has as its target T4, human active recombinant Caspase-3 (Homo sapiens, UniProt P42574).
T4 sequence (P42574 29-175 limits assumed): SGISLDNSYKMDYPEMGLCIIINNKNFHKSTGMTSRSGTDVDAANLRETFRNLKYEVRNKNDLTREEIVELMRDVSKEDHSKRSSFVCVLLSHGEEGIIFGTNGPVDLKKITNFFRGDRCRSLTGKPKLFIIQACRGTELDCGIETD
T4 sequence (P42574 176-277 limits assumed): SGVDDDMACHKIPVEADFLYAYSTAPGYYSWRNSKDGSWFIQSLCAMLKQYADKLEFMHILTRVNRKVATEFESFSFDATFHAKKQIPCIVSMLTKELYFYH
Description: In vitro caspase activity and inhibition assay (IC50), Caspase-3. It counts as biochemical. The conditions noted are these: 30 min preincubation; 0.1 nM Caspase-3, 10 µM Ac-DEVD-AMC; read-out: Enzyme assays Casp3 IC50 (converted).
Description: as §9, §10

The target of assay [4] is T5, human active recombinant caspase-2 (Homo sapiens, UniProt P42575).
T5 sequence (P42575 170-325 limits assumed): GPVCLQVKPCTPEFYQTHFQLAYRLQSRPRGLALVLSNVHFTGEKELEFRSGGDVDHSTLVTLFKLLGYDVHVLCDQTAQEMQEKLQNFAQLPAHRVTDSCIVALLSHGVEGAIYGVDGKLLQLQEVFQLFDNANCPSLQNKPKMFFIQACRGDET
T5 sequence (P42575 348-452 limits assumed): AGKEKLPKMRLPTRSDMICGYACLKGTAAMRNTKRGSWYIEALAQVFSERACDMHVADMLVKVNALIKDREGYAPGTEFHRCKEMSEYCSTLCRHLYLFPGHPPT
Description: In vitro caspase activity and inhibition assay (IC50), Caspase-2. It counts as biochemical. The method, then: Stock solutions were stored at −80 °C.

Non-standard residues stand in square brackets, D forms with d. Residues, ends and D or L forms follow the SMILES beside them. ξ: configuration not given here. *: point of attachment. ξTHIQ1CO(6-Me) = Cc1ccc2c(c1)CCNC2C(=O)O; X1 = O=C(O)CC(N*)C(=O)COc1c(F)cccc1F; Quinaldoyl = O=C(c1ccc2ccccc2n1)*

T1 sequence (P06870 25-262): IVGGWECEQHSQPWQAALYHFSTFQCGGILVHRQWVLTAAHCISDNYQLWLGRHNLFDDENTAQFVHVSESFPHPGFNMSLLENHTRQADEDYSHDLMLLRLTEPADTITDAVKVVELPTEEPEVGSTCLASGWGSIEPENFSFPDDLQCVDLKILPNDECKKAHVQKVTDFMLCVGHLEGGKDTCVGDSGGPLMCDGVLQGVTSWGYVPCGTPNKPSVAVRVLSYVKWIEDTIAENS

As for `CC(C)[C@H](NC(=O)c1ccc2ccccc2n1)C(=O)N[C@@H](CC(=O)O)C(=O)N[C@H](C(=O)N1CC[C@H](CC(C)(C)C)[C@@H]1C(=O)NC(CC(=O)O)C(=O)COc1c(F)cccc1F)C(C)C` (some centres unmarked) [LJ3a], the “effect on Kallikrein-1” value at Kallikrein-1 was “very limited or no effect”. At Cathepsin-B, the “effect on Cathepsin-B” value is “very limited or no effect”. Moreover, at Kallikrein-8, the “effect on Kallikrein-8” value is “very limited or no effect”. For the same molecule, the “effect on Cathepsin-L” value on Cathepsin-L is “very limited or no effect”. The “effect on Caspase-6” value in assay [1] is reported as “very limited or no effect”. Besides, in assay [2], the S1P cleavage entry was “abolished”; the SREBP2 activation entry is reported as “abolished”; the “impact on RAIDD, PIDD1, and Casp2 expression” value is “no significant impact”. Further, the “effect on Plasmin” value on Plasmin was “very limited or no effect”.
Turning to `Cc1ccc2c(c1)CCN(C(=O)[C@@H](NC(=O)[C@H](CC(=O)O)NC(=O)[C@@H](NC(=O)c1ccc3ccccc3n1)C(C)C)C(C)C)C2C(=O)NC(CC(=O)O)C(=O)COc1c(F)cccc1F` (stereo partly drawn) [LJ2, Quinolin-2-carbonyl-VDV-(methyl-isoquinolyl)-D-CH2-O(2,6F2)Ph] (Quinaldoyl-VDV[ξTHIQ1CO(6-Me)]-X1), the IC50 was 140 ± 5 nM in [3] and 0.37 ± 0.01 nM in [4].
